Data reported in publication doi:10.1101/2021.09.30.462449v1 (biorxiv, 2021).

Columns and labels:
Test in all cases: biochemical
Conditions in all cases: read-out: % inhibition mean (Z'Lyte)
NTRK2 (TRKB) = NTRK2 (TRKB) (Homo sapiens, UniProt Q16620)
HIPK1 (Myak) = HIPK1 (Myak) (Homo sapiens, UniProt Q86Z02)
KSR2 = KSR2 (Homo sapiens, UniProt Q6VAB6)
TEK (TIE2) Y897S = TEK (TIE2) Y897S (Homo sapiens, UniProt Q02763, Y897S)
GSK3A (GSK3 alpha) = GSK3A (GSK3 alpha) (Homo sapiens, UniProt P49840)
CAMK2D (CaMKII delta) = CAMK2D (CaMKII delta) (Homo sapiens, UniProt Q13557)
CAMK2D (CaMKII delta), sequence (Q13557 whole entry): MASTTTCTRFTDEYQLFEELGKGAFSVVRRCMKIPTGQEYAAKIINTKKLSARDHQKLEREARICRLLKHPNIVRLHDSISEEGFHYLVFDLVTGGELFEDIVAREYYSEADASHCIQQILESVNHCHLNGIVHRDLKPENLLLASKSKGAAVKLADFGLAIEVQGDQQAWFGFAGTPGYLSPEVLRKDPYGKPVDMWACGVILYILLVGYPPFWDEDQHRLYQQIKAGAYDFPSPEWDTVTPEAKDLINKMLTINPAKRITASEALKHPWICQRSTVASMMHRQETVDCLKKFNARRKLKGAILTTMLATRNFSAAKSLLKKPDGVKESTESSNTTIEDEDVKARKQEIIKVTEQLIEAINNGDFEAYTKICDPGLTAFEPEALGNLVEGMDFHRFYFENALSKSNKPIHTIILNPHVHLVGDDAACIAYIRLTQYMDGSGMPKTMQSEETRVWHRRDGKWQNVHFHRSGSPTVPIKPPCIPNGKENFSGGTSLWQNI

RET V804E = RET V804E (Homo sapiens, UniProt P07949, V804E)
RET V804E, sequence (P07949 whole entry V804E): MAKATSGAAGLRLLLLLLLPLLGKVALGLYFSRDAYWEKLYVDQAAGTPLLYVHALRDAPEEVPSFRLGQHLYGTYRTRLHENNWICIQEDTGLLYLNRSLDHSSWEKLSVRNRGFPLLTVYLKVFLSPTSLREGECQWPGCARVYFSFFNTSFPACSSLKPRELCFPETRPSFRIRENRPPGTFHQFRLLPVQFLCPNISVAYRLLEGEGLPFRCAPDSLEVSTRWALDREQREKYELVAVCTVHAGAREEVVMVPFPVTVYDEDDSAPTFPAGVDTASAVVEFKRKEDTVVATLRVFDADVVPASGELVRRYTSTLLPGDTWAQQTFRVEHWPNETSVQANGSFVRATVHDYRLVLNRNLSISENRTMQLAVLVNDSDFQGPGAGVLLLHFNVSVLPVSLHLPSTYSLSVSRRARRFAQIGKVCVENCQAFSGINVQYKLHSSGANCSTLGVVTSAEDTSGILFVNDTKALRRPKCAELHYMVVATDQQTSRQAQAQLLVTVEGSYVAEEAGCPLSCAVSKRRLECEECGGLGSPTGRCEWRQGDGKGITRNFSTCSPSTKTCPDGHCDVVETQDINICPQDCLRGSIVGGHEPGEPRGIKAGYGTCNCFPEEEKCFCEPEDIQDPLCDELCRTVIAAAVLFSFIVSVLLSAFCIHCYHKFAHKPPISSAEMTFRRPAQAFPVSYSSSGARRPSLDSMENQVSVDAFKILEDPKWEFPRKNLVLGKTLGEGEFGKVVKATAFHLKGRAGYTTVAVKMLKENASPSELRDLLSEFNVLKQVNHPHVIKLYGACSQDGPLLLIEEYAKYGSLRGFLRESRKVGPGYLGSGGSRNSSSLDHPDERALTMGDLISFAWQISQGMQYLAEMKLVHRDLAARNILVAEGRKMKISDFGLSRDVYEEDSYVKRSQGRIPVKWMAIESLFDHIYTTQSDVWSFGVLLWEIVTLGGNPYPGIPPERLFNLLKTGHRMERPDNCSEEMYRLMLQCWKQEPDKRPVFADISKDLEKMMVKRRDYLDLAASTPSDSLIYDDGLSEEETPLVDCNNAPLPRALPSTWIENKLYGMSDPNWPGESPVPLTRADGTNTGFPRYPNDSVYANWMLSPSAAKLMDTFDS

PRKG1 = PRKG1 (Homo sapiens, UniProt Q13976)
[1] = target: CSNK1E (CK1 epsilon) R178C (Homo sapiens, UniProt P49674, R178C)
CSNK1E (CK1 epsilon) R178C, sequence (P49674 whole entry R178C): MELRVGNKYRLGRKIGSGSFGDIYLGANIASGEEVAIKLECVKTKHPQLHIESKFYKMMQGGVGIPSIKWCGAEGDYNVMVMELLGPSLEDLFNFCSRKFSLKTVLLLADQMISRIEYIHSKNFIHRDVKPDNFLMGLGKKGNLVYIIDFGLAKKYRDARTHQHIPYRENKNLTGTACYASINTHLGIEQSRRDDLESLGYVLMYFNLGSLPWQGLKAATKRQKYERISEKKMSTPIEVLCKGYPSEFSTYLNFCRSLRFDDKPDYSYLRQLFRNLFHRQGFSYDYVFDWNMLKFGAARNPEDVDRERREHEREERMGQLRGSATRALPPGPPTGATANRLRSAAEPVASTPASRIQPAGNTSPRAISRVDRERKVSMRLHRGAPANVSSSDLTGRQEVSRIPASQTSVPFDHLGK

MKNK1 (MNK1) = MKNK1 (MNK1) (Homo sapiens, UniProt Q9BUB5)
MKNK1 (MNK1), sequence (Q9BUB5 whole entry): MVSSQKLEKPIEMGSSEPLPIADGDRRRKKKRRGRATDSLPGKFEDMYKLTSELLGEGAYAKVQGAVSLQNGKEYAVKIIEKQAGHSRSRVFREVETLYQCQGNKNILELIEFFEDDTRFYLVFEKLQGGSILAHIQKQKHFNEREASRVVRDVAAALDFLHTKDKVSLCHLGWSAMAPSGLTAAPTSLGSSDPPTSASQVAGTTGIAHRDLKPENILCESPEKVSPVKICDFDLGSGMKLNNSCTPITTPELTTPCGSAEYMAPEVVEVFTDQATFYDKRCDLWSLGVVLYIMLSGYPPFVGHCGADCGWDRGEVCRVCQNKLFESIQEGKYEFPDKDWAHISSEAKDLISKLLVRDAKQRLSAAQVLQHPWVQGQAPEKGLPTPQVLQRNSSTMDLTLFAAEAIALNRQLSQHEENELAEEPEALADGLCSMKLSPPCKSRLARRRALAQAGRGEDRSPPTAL

CAMK4 (CaMKIV) = CAMK4 (CaMKIV) (Homo sapiens, UniProt Q16566)
CAMK4 (CaMKIV), sequence (Q16566 whole entry): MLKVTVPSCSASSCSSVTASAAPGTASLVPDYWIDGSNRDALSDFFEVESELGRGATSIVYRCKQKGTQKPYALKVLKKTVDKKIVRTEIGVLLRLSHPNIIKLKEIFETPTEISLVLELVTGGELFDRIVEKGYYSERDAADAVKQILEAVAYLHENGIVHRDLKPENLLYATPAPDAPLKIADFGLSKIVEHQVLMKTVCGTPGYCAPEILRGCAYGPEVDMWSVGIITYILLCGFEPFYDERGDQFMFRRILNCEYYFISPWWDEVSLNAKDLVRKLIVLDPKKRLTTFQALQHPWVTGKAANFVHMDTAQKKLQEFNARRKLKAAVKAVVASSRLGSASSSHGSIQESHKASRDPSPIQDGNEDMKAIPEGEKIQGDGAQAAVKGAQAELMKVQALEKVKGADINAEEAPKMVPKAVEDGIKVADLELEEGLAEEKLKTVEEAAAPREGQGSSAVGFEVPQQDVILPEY

PTK2B (FAK2) = PTK2B (FAK2) (Homo sapiens, UniProt Q14289)
MUSK = MUSK (Homo sapiens, UniProt O15146)
TAOK2 (TAO1) = TAOK2 (TAO1) (Homo sapiens, UniProt Q9UL54)
SBK1 = SBK1 (Homo sapiens, UniProt Q52WX2)
MST4 = MST4 (Homo sapiens, UniProt Q9P289)
MST4, sequence (Q9P289 whole entry): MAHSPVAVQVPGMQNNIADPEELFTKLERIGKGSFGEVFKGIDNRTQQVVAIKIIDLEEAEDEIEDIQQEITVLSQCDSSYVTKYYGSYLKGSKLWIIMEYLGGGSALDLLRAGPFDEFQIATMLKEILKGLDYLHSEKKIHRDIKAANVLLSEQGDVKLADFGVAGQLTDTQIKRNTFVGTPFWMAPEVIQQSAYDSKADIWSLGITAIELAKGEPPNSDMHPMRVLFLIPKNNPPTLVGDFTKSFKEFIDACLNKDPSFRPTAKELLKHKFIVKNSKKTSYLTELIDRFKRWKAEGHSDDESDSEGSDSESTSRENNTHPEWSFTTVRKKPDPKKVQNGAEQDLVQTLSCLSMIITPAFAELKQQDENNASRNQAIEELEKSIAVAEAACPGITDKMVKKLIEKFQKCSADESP

MAP4K2 (GCK) = MAP4K2 (GCK) (Homo sapiens, UniProt Q12851)
GRK5 = GRK5 (Homo sapiens, UniProt P34947)
CDK17/cyclin Y = CDK17/cyclin Y (Homo sapiens, UniProt Q00537)
PRKCZ (PKC zeta) = PRKCZ (PKC zeta) (Homo sapiens, UniProt Q05513)
PRKCZ (PKC zeta), sequence (Q05513 whole entry): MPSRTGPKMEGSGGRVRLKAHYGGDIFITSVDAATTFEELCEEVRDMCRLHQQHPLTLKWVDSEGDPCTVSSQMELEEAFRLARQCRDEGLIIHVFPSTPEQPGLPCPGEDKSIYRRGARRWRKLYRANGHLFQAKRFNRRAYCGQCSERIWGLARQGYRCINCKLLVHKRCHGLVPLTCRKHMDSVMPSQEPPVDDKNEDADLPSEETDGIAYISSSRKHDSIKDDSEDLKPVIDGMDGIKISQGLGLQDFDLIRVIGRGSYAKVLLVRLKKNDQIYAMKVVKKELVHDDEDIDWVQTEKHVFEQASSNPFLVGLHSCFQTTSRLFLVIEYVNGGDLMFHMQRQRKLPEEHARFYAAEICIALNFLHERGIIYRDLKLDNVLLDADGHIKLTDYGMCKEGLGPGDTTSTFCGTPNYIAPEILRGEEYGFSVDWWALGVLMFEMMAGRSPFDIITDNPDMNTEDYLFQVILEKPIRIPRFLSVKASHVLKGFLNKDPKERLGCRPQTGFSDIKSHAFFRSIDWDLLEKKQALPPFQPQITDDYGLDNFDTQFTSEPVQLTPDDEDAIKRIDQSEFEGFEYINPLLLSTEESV

SGKL (SGK3) = SGKL (SGK3) (Homo sapiens, UniProt Q96BR1)
RET = RET (Homo sapiens, UniProt P07949)
JAK2 JH1 JH2 = JAK2 JH1 JH2 (Homo sapiens, UniProt O60674)
MAP3K19 (YSK4) = MAP3K19 (YSK4) (Homo sapiens, UniProt Q56UN5)
MAPK12 (p38 gamma) = MAPK12 (p38 gamma) (Homo sapiens, UniProt P53778)
FGFR2 N549H = FGFR2 N549H (Homo sapiens, UniProt P21802, N549H)
PRKCD (PKC delta) = PRKCD (PKC delta) (Homo sapiens, UniProt Q05655)
PRKCD (PKC delta), sequence (Q05655 whole entry): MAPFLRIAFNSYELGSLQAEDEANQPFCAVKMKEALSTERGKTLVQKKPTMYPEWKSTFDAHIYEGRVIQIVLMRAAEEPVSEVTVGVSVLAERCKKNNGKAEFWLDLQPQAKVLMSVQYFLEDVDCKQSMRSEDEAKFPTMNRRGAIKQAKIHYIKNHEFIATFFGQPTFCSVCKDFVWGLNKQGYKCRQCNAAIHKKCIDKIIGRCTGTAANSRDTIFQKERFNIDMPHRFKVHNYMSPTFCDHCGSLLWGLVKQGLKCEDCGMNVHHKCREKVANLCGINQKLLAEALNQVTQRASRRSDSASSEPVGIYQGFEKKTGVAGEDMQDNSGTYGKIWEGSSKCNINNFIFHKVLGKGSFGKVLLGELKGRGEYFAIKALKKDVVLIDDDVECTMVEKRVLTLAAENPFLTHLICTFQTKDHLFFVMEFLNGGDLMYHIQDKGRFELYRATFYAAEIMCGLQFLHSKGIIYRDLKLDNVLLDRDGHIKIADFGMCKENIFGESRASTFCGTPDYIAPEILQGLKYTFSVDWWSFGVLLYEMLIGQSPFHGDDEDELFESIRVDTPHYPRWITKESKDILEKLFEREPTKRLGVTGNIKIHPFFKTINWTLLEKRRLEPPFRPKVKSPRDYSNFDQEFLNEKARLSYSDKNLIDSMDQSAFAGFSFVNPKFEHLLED

STK22B (TSSK2) = STK22B (TSSK2) (Homo sapiens, UniProt Q96PF2)
STK22B (TSSK2), sequence (Q96PF2 whole entry): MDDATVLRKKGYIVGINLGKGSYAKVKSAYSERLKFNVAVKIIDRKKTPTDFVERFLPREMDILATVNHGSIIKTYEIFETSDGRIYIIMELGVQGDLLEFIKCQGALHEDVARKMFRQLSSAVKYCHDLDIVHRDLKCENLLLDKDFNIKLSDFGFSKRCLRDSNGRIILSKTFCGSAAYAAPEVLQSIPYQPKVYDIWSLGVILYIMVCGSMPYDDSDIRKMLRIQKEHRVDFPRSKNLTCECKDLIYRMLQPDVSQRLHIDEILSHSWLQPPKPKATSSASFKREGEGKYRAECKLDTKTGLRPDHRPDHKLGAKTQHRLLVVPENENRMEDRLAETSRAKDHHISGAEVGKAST

With COc1ccc2nc3cc(Cl)ccc3c(Nc3cc(CN4CCCC4)c(O)c(CN4CCCC4)c3)c2n1 [Pyronaridine, 4-[(7-Chloro-2-methoxybenzo[b][1,5]naphthyridin-10-yl)amino]-2,6-bis(1-pyrrolidinylmethyl)phenol phosphate (1:4)] as the molecule, how does the inhibition at 1 µM (NTRK2 (TRKB)) read?
The inhibition at 1 µM was 1%.

And the inhibition at 1 µM (HIPK1 (Myak))?
The inhibition at 1 µM was 1%.

What about the inhibition at 1 µM (KSR2) of the same molecule?
The inhibition at 1 µM was 2%.

And the inhibition at 1 µM (TEK (TIE2) Y897S)?
The inhibition at 1 µM was 2%.

And the inhibition at 1 µM (GSK3A (GSK3 alpha))?
The inhibition at 1 µM was 4%.

And the inhibition at 1 µM (CAMK2D (CaMKII delta))?
Its inhibition at 1 µM is -5%.

What about the inhibition at 1 µM (RET V804E) of the same molecule?
The inhibition at 1 µM was 2%.

And the inhibition at 1 µM (PRKG1)?
Its inhibition at 1 µM is -6%.

And the inhibition at 1 µM [1]?
The inhibition at 1 µM was 1%.

And the inhibition at 1 µM (MKNK1 (MNK1))?
The inhibition at 1 µM was 4%.

And the inhibition at 1 µM (CAMK4 (CaMKIV))?
Its inhibition at 1 µM is -5%.

And the inhibition at 1 µM (PTK2B (FAK2))?
Its inhibition at 1 µM is -1%.

And the inhibition at 1 µM (MUSK)?
The inhibition at 1 µM was -10%.

And the inhibition at 1 µM (TAOK2 (TAO1))?
The inhibition at 1 µM was -1%.

What about the inhibition at 1 µM (SBK1) of the same molecule?
The inhibition at 1 µM was 6%.

And the inhibition at 1 µM (MST4)?
The inhibition at 1 µM was 1%.

What about the inhibition at 1 µM (MAP4K2 (GCK)) of the same molecule?
Its inhibition at 1 µM is 5%.

What about the inhibition at 1 µM (GRK5) of the same molecule?
The inhibition at 1 µM was 10%.

And the inhibition at 1 µM (CDK17/cyclin Y)?
The inhibition at 1 µM was -2%.

And the inhibition at 1 µM (PRKCZ (PKC zeta))?
Its inhibition at 1 µM is -1%.

And the inhibition at 1 µM (SGKL (SGK3))?
The inhibition at 1 µM was 0%.

What about the inhibition at 1 µM (RET) of the same molecule?
The inhibition at 1 µM was 5%.

And the inhibition at 1 µM (JAK2 JH1 JH2)?
Its inhibition at 1 µM is -3%.

What about the inhibition at 1 µM (MAP3K19 (YSK4)) of the same molecule?
The inhibition at 1 µM was 3%.

What about the inhibition at 1 µM (MAPK12 (p38 gamma)) of the same molecule?
Its inhibition at 1 µM is 7%.

What about the inhibition at 1 µM (FGFR2 N549H) of the same molecule?
The inhibition at 1 µM was 2%.

And the inhibition at 1 µM (PRKCD (PKC delta))?
The inhibition at 1 µM was 3%.

What about the inhibition at 1 µM (STK22B (TSSK2)) of the same molecule?
The inhibition at 1 µM was -2%.
